The source of these data is PubChem BioAssay (NCI).

Several values for one entry are separate records, joined by “and”; a condition that tells them apart may be missing. Equal values may be shown once.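 How tested: cells in 96-well plates exposed to compound for 48 hours at five concentrations. Abbreviation: GI50, concentration required for 50% inhibition of growth. The concentration for full growth arrest is given as TGI.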

Test in all cases: NCI anticancer screen, dose series, 48 h
Assay [1] deals with UACC-62 melanoma.
For assay [2], the system named is IGROV1 ovarian.
Assay [3] has as its system OVCAR-8 ovarian.
Assay [4] concerns HCC-2998 colon.
For assay [5], the system named is K-562 leukemia.
In assay [6] the test system is SW-620 colon.
In assay [7] the test system is EKVX NSCLC.
For assay [8], the system named is UACC-257 melanoma.
In assay [9] the test system is SK-MEL-5 melanoma.
Assay [10] has as its system NCI-H522 lung.

As for `Cc1nc(NC(=O)N2CCC[C@H]2C(N)=O)sc1-c1ccnc(C(C)(C)C(F)(F)F)c1`, the GI50 in assay [1] was 3.18 µM and 3.05 µM; in assay [2], 0.0558 µM and 0.121 µM; in assay [3], 8.28 µM and > 10 µM; in assay [4], 12.8 µM and 6.71 µM; in assay [5] it was 28.1 µM and > 10 µM; in [6], 4.82 µM and 7.37 µM. Besides, the GI50 in assay [7] is 4.53 µM; in assay [8], 9.58 µM and > 10 µM; in assay [9] it was 11.8 µM and > 10 µM; in assay [10], 6.41 µM and 8.17 µM. The TGI in assay [1] is 18.7 µM and > 10 µM; in assay [2], 0.483 µM and 0.816 µM; in assay [3], 76.2 µM and > 10 µM; in assay [4], 49.9 µM and > 10 µM; in [5], more than 100 µM; in assay [6], more than 67.1 µM. Besides, the TGI in [7] is more than 10 µM; in [8], 45 µM and > 10 µM; in assay [9], 24.6 µM and > 10 µM; in assay [10], 27.1 µM and > 10 µM.
As to `NC(CSC(c1ccccc1)(c1ccccc1)c1ccc2ccccc2c1)C(=O)O` (stereo not given), the GI50 was 0.0628 µM in assay [1]; 0.124 µM in assay [2]; 0.0804 µM in [3]; 0.0374 µM in assay [4]; 0.0461 µM in [5]; 0.0381 µM in assay [6]. In addition, the GI50 was 0.136 µM in assay [7], 9.67 µM in [8], 0.0438 µM in assay [9] and 0.0392 µM in [10]. For the same compound, the TGI was 13.6 µM in assay [1]; 21.6 µM in assay [2]; 21.3 µM in [3]; 0.496 µM in [4]; more than 100 µM in assay [5]; 11.6 µM in [6]. Moreover, the TGI in assay [7] came out at 26.3 µM; in assay [8], 34.3 µM; in assay [9], 11.5 µM; in assay [10], 1.49 µM.
Turning to `Cn1c(=O)c2[nH]c(COc3ccc(C(C)(C)C)cc3)nc2n(C)c1=O`, the GI50 is 5.56 µM in [1]; 14.1 µM in assay [2]; 18.3 µM in [3]; 16.8 µM in assay [4]; 3.28 µM in [5]; 27 µM in assay [6]. Besides, the GI50 in [7] was 3.34 µM; in [8], 6.03 µM; in assay [9], 4.68 µM; in [10], 19.6 µM. Further, the TGI in assay [1] was 72.4 µM; in [2] it was 44.5 µM; in [3] it was 67.1 µM; in [4], more than 100 µM; in assay [5], more than 100 µM; in assay [6] it was more than 100 µM. Further, the TGI is more than 100 µM in assay [7], 31.6 µM in assay [8], 20.6 µM in [9] and 88 µM in assay [10].
On to `Cc1ccc(Nc2ccc(Nc3ccc(C)cc3)c3c2C(=O)c2c(O)ccc(O)c2C3=O)cc1`, for which the TGI in assay [1], in assay [2], in assay [3], in [4], in assay [5] and in [6] was more than 100 µM in each case. Moreover, the TGI in assay [7], in assay [8], in [9] and in [10] was more than 100 µM in each case.
On to `COc1ccc(O)c2c1C(=O)CCCC2=O`, for which the TGI in assay [1], in assay [2], in [3], in [4], in assay [5] and in [6] was more than 100 µM each time. Further, the TGI in [7], in assay [8], in assay [9] and in assay [10] was more than 100 µM each time.
`O=[As](O)(O)c1ccc(Cc2ccc([As](=O)(O)O)cc2)cc1`: the TGI in [1] is 2.62 µM; in [2] it was 1.94 µM; in assay [3] it was 1.35 µM; in assay [4] it was 3.68 µM; in assay [5], 3.68 µM; in [6] it was 2.18 µM. For the same compound, the TGI in [7] turned out to be 2.88 µM; in [8], 1.3 µM; in assay [9], 1.89 µM; in [10] it was 1.44 µM.
With `Fc1ccccc1C1CC(C(c2ccccc2)c2ccccc2)=Nc2ccccc2S1` (stereo not given), the TGI in assay [1] came to 18.7 µM; in [2] it was 28.8 µM; in assay [3], 48.5 µM; in assay [4] it was 17.6 µM; in assay [5], 10.6 µM; in assay [6], 31 µM. The TGI is 24.5 µM in [7], 30.6 µM in assay [8], 24.9 µM in assay [9] and 21.7 µM in assay [10].
Turning to `COc1cc2c(cc1C)n(O)c(C)c(C(=O)C/C(=N/NC(=O)C[N+](C)(C)C)C(=O)Nc1cccc(Cl)c1C)[n+]2=O`, the TGI in assay [1], in assay [2], in [3], in assay [4], in [5] and in assay [6] was more than 100 µM throughout. Moreover, the TGI in assay [7], in assay [8], in assay [9] and in assay [10] was more than 100 µM throughout.
Consider `O=c1cccccc1NCCCCNc1cccccc1=O`, for which the TGI in assay [1], in assay [2], in [3], in assay [4], in assay [5] and in assay [6] was more than 100 µM throughout. Also, the TGI in assay [7] is more than 100 µM; in assay [8], more than 100 µM; in [9] it was 96.8 µM; in [10] it was more than 100 µM.
For the compound `Oc1ccccc1-n1c(-c2ccccc2)ccc1-c1ccccc1`, the GI50 is 5.43 µM in assay [1]; 4.1 µM in assay [2]; 12.1 µM in assay [3]; 11.2 µM in assay [4]; 5.17 µM in assay [5]; 5.49 µM in assay [6]. Besides, the GI50 in assay [7] was 2.64 µM; in assay [8], 4.2 µM; in assay [9], 3.05 µM; in [10], 2.74 µM. Moreover, the TGI in assay [1] was more than 100 µM; in [2], 19.4 µM; in [3], 29.6 µM; in [4], 29.2 µM; in [5], 64.3 µM; in [6], 20.2 µM. In addition, the TGI in assay [7] is 25.3 µM; in [8], 27.3 µM; in assay [9], more than 100 µM; in [10] it was 12.8 µM.
